Broadly, the Ki is the dissociation constant of the complex between target and ligand, obtained from inhibition or displacement.

Where only a bound is given, the exact number is not on record here.

T1 sequence (P00742 41-179 limits assumed): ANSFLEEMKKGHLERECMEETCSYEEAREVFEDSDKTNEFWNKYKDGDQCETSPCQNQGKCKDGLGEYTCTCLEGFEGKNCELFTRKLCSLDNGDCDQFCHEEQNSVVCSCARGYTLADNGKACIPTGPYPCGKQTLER
T1 sequence (P00742 235-488 limits assumed): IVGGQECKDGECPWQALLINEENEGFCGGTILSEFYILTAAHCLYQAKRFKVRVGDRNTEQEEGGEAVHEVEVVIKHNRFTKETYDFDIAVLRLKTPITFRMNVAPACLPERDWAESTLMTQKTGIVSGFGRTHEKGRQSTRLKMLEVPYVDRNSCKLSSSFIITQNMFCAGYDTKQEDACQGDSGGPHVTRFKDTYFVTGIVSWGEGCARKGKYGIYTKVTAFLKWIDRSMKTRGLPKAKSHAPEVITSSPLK

One experiment has as its target T1, Coagulation factor X (Homo sapiens, UniProt P00742). The experiment in a line: Binding affinity against Coagulation factor X.
The compound `Nc1cc(C2=NOC(C(=O)Nc3ccc(-c4ccccc4S(N)(=O)=O)cc3)C2)ccc1Cl` (configuration not stated) displayed a Ki of 0.13 µM.

The target of the next experiment is T1, Coagulation factor X. Kind of experiment: Binding affinity against the coagulation factor X.
Compound `COc1cccc(C2=NOC(C(=O)Nc3ccc(-c4ccccc4S(N)(=O)=O)cc3)C2)c1` (configuration not stated) yielded a Ki of 7.5 µM. This lies in the single-digit micromolar range.
On to `NS(=O)(=O)c1ccccc1-c1ccc(NC(=O)C2CC(c3cccc(F)c3)=NO2)cc1` (configuration not stated), for which the Ki is 7.8 µM.
On the same count and under the same terms, to `NS(=O)(=O)c1ccccc1-c1ccc(NC(=O)C2CC(c3cccc(Cl)c3)=NO2)cc1` (configuration not stated) belongs 5.9 µM; to `NS(=O)(=O)c1ccccc1-c1ccc(NC(=O)C2CC(c3ccc(Cl)cc3)=NO2)cc1` (configuration not stated), 1 µM; to `NS(=O)(=O)c1ccccc1-c1ccc(NC(=O)C2CC(c3ccc(Br)cc3)=NO2)cc1` (configuration not stated), 4.1 µM.
For `CCCCCC1=NOC(C(=O)Nc2ccc(-c3ccccc3S(N)(=O)=O)cc2)C1` (configuration not stated), the Ki amounted to 4.5 µM.
For the compound `NS(=O)(=O)c1ccccc1-c1ccc(NC(=O)C2CC(c3ccc(I)cc3)=NO2)cc1` (configuration not stated), the Ki came out at 1.9 µM.
`NS(=O)(=O)c1ccccc1-c1ccc(NC(=O)C2CC(c3ccc(F)c(F)c3)=NO2)cc1` (configuration not stated): affinity was put at a Ki of 4.6 µM.

The target of a further experiment is T1, Coagulation factor X. The experiment in a line: Binding affinity against the Factor Xa (FXa).
With `NS(=O)(=O)c1ccccc1-c1ccc(NC(=O)C2CC(c3cccc(O)c3)=NO2)cc1` (configuration not stated), the Ki was more than 3 µM.
In turn, `NS(=O)(=O)c1ccccc1-c1ccc(NC(=O)C2CC(c3ccc(Cl)c(Cl)c3)=NO2)cc1` (configuration not stated) had a Ki of 2.7 µM.
On the same count and under the same terms, as for `COc1ccc2ccccc2c1C1=NOC(C(=O)Nc2ccc(-c3ccccc3S(N)(=O)=O)cc2)C1` (configuration not stated), the figure is more than 3 µM; as for `NS(=O)(=O)c1ccccc1-c1ccc(NC(=O)C2CC(c3ccccc3Cl)=NO2)cc1` (configuration not stated), 1.7 µM.
The compound `NS(=O)(=O)c1ccccc1-c1ccc(NC(=O)C2CC(c3c(O)ccc4ccccc34)=NO2)cc1` (configuration not stated) yielded a Ki of more than 30 µM.
On to `COc1cc(C2=NOC(C(=O)Nc3ccc(-c4ccccc4S(N)(=O)=O)cc3)C2)ccc1O` (configuration not stated), for which affinity was put at a Ki of 20 µM.
Consider `NS(=O)(=O)c1ccccc1-c1ccc(NC(=O)C2CC(c3cccc(C(F)(F)F)c3)=NO2)cc1` (configuration not stated), for which the affinity corresponds to a Ki of 17 µM. This Ki and that of the compound before are within 1.5-fold of each other.
The compound `NS(=O)(=O)c1ccccc1-c1ccc(NC(=O)C2CC(c3cc(I)c(O)c(I)c3)=NO2)cc1` (configuration not stated) yielded a Ki of more than 30 µM.
Compound `NS(=O)(=O)c1ccccc1-c1ccc(NC(=O)C2CC(c3cccc(I)c3)=NO2)cc1` (configuration not stated) displayed an inhibition constant Ki of 10 µM.
The same measure, in the same setting: as for `NS(=O)(=O)c1ccccc1-c1ccc(NC(=O)C2CC(c3cccs3)=NO2)cc1` (configuration not stated), the figure is 1.3 µM.
For `NS(=O)(=O)c1ccccc1-c1ccc(NC(=O)C2CC(c3ccc4c(c3Cl)OCO4)=NO2)cc1` (configuration not stated), the affinity corresponds to a Ki of 1.7 µM.
Same read-out and setting: to `NS(=O)(=O)c1ccccc1-c1ccc(NC(=O)C2C[C+](c3ccc(Cl)c([N+](=O)[O-])c3)[N-]O2)cc1` (configuration not stated) belongs more than 30 µM; to `NS(=O)(=O)c1ccccc1-c1ccc(NC(=O)C2CC(c3cccc4ccccc34)=NO2)cc1` (configuration not stated), more than 30 µM.
The same measure, in the same setting: to `COc1ccc(C2=NOC(C(=O)Nc3ccc(-c4ccccc4S(N)(=O)=O)cc3)C2)cc1` (configuration not stated) belongs 0.7 µM.
The compound `CCCCCCCCCCC1=NOC(C(=O)Nc2ccc(-c3ccccc3S(N)(=O)=O)cc2)C1` (configuration not stated) returned a Ki of 17 µM.
Same read-out and setting: as for `Cc1ccc(C2=NOC(C(=O)Nc3ccc(-c4ccccc4S(N)(=O)=O)cc3)C2)cc1` (configuration not stated), the figure is 2.1 µM.
The compound `CO[C@@H]1[C@H]2OC(C)(C)O[C@H]2O[C@H]1C1=NOC(C(=O)Nc2ccc(-c3ccccc3S(N)(=O)=O)cc2)C1` (some centres not stated) came in with a Ki of more than 30 µM.
For the compound `NS(=O)(=O)c1ccccc1-c1ccc(NC(=O)C2CC(c3cccc(C(=O)O)c3)=NO2)cc1` (configuration not stated), the inhibition constant (Ki) is more than 30 µM.
The compound `NS(=O)(=O)c1ccccc1-c1ccc(NC(=O)C2CC(/C=C/c3ccccc3)=NO2)cc1` (configuration not stated) displayed a Ki of 2.3 µM.
`CCCCCCOc1ccccc1C1=NOC(C(=O)Nc2ccc(-c3ccccc3S(N)(=O)=O)cc2)C1` (configuration not stated) had a Ki of 1.8 µM. This Ki and that of the compound before are within 1.5-fold of each other.
Consider `NS(=O)(=O)c1ccccc1-c1ccc(NC(=O)C2CC(c3ccccc3)=NO2)cc1` (configuration not stated), for which the affinity, expressed as Ki, was 11 µM. This Ki is about 6.1-fold higher than that of the compound before.
On to `NS(=O)(=O)c1ccccc1-c1ccc(NC(=O)C2CC(c3ccc4c(c3)OCO4)=NO2)cc1` (configuration not stated), for which the Ki was determined as 0.49 µM.
`COc1ccc(Br)cc1C1=NOC(C(=O)Nc2ccc(-c3ccccc3S(N)(=O)=O)cc2)C1` (configuration not stated) had a Ki of more than 30 µM.
Same read-out and setting: to `NS(=O)(=O)c1ccccc1-c1ccc(NC(=O)C2CC(c3ccc(O)cc3)=NO2)cc1` (configuration not stated) belongs 22 µM.
As for `NS(=O)(=O)c1ccccc1-c1ccc(NC(=O)C2CC(c3ccc(C(F)F)cc3)=NO2)cc1` (configuration not stated), the Ki came out at 1.6 µM.
Compound `NS(=O)(=O)c1ccccc1-c1ccc(NC(=O)C2CC(c3ccc4c(c3[N+](=O)[O-])OCO4)=NO2)cc1` (configuration not stated) showed a Ki of 2.4 µM.
`NS(=O)(=O)c1ccccc1-c1ccc(NC(=O)C2CC(c3cccc(Br)c3)=NO2)cc1` (configuration not stated) returned a Ki of more than 30 µM.
Still for that read-out and setting: to `NS(=O)(=O)c1ccccc1-c1ccc(NC(=O)C2CC(c3ccc4ccccc4c3)=NO2)cc1` (configuration not stated) belongs 20 µM.
On to `NS(=O)(=O)c1ccccc1-c1ccc(NC(=O)C2CC(c3ccc(Cl)cc3Cl)=NO2)cc1` (configuration not stated), for which the Ki was 1.7 µM.
`NS(=O)(=O)c1ccccc1-c1ccc(NC(=O)C2CC(/C=C/c3ccco3)=NO2)cc1` (configuration not stated): the affinity, expressed as Ki, was 2.3 µM.
As for `NS(=O)(=O)c1ccccc1-c1ccc(NC(=O)C2CC(c3ccc(-c4ccccc4)cc3)=NO2)cc1` (configuration not stated), the Ki worked out at 1.1 µM. Against the preceding compound, the Ki is about 2.1-fold lower.
The same measure, in the same setting: as for `NS(=O)(=O)c1ccccc1-c1ccc(NC(=O)C2CC(CCc3ccccc3)=NO2)cc1` (configuration not stated), the figure is more than 30 µM; as for `NS(=O)(=O)c1ccccc1-c1ccc(NC(=O)C2CC(c3ccc(Cl)c(F)c3)=NO2)cc1` (configuration not stated), 2.5 µM.

For the origin of these results see ChEMBL document CHEMBL1136396, “Discovery of 3-amino-4-chlorophenyl P1 as a novel and potent benzamidine mimic via solid-phase synthesis of an isoxazoline library” (Bioorg Med Chem Lett, 2003).
